This passage reports Activity results from ChEMBL document CHEMBL1153605, “Synthesis and in vivo antidiabetic activity of novel dispiropyrrolidines through [3+2] cycloaddition reactions with thiazolidinedione and rhodanine derivatives” (2009).

Each structure is given as a SMILES string.

Common to all, as to format: functional
Test [1] has as its system Rattus norvegicus. In words: Antidiabetic activity in alloxan-induced diabetic Wistar rat model assessed as reduction in blood glucose level at 36 mg/kg, po administered once daily for 15 days measured after 1 hr postdose.
The test system of test [2] is Rattus norvegicus. In words: Antidiabetic activity in alloxan-induced diabetic Wistar rat model assessed as reduction in blood glucose level at 36 mg/kg, po administered once daily for 15 days measured after 6 hrs postdose.
The subject of test [3] is Rattus norvegicus. In words: Reduction of liver GPT level in alloxan-induced diabetic Wistar rat model assessed per mg of protein at 36 mg/kg, po administered once daily for 15 days measured on day 18.
The subject of test [4] is Rattus norvegicus. In words: Reduction of serum creatinine level in alloxan-induced diabetic Wistar rat model at 36 mg/kg, po administered once daily for 15 days measured on day 18.
In test [5] the test system is Rattus norvegicus. In words: Reduction of blood urea nitrogen level in alloxan-induced diabetic Wistar rat model at 36 mg/kg, po administered once daily for 15 days measured on day 18.
Test [6] has as its system Rattus norvegicus. In words: Reduction of serum GPT level in alloxan-induced diabetic Wistar rat model at 36 mg/kg, po administered once daily for 15 days measured on day 18.
Test [7] deals with Rattus norvegicus. In words: Reduction of liver ALP level in alloxan-induced diabetic Wistar rat model at 36 mg/kg, po administered once daily for 15 days measured on day 18.
Test [8] has as its system Rattus norvegicus. In words: Antidiabetic activity in alloxan-induced diabetic Wistar rat model assessed as reduction in blood glucose level at 36 mg/kg, po administered once daily for 15 days measured after 3 hrs postdose.

With `Cc1ccc([C@H]2CN(C)[C@@]3(C(=O)Nc4ccccc43)[C@@]23SC(=O)NC3=O)cc1`, the Activity with Rattus norvegicus [1] is 140.5 mg/dL; with Rattus norvegicus [2], 125.5 mg/dL; with Rattus norvegicus [3], 558 U/mg protein; with Rattus norvegicus [4] it was 1.8 mg/dL; in the test on Rattus norvegicus [5], 37.5 mg/dL; with Rattus norvegicus [6], 129.8 U/ml. For the same molecule, the Activity in the test on Rattus norvegicus [7] was found to be 38.3 KA/dl; with Rattus norvegicus [8], 136.5 mg/dL.
As for `CN1C[C@H](c2ccc(F)c(F)c2)[C@]2(SC(=O)NC2=S)[C@]12C(=O)Nc1ccccc12`, the Activity in the test with Rattus norvegicus [1] is 137.5 mg/dL; in the test on Rattus norvegicus [2] it was 106.5 mg/dL; in the test on Rattus norvegicus [3], 626 U/mg protein; with Rattus norvegicus [4] it was 1.5 mg/dL; with Rattus norvegicus [5], 38.5 mg/dL; in the test on Rattus norvegicus [6], 137.5 U/ml. In addition, the Activity with Rattus norvegicus [7] was 37 KA/dl; in the test on Rattus norvegicus [8] it was 112.8 mg/dL.
For `CN1C[C@H](c2ccc(F)c(F)c2)[C@]2(SC(=O)NC2=O)[C@]12C(=O)Nc1ccccc12`, the Activity in the test on Rattus norvegicus [1] was 134.5 mg/dL; in the test on Rattus norvegicus [2], 115.3 mg/dL; in the test on Rattus norvegicus [3] it was 582 U/mg protein; with Rattus norvegicus [4], 2.1 mg/dL; in the test with Rattus norvegicus [5], 35 mg/dL; with Rattus norvegicus [6], 132 U/ml. Besides, the Activity in the test on Rattus norvegicus [7] is 41.3 KA/dl; in the test with Rattus norvegicus [8], 123.5 mg/dL.
For the molecule `COc1ccc([C@H]2CN(C)[C@@]3(C(=O)Nc4ccccc43)[C@@]23SC(=O)NC3=S)cc1OC`, the Activity was 140.5 mg/dL with Rattus norvegicus [1]; 95.8 mg/dL in the test with Rattus norvegicus [2]; 576 U/mg protein in the test on Rattus norvegicus [3]; 2.2 mg/dL in the test on Rattus norvegicus [4]; 35.5 mg/dL in the test with Rattus norvegicus [5]; 121 U/ml in the test on Rattus norvegicus [6]. For the same molecule, the Activity in the test with Rattus norvegicus [7] came to 42.3 KA/dl; with Rattus norvegicus [8], 106.5 mg/dL.
Consider `CN1C[C@H](c2ccc(O)c(O)c2)[C@]2(SC(=O)NC2=S)[C@]12C(=O)Nc1ccccc12`, for which the Activity with Rattus norvegicus [1] worked out at 175.5 mg/dL; in the test on Rattus norvegicus [2], 120.5 mg/dL; in the test on Rattus norvegicus [3] it was 646 U/mg protein; in the test on Rattus norvegicus [4], 2 mg/dL; in the test with Rattus norvegicus [5] it was 39 mg/dL; in the test on Rattus norvegicus [6] it was 142.8 U/ml. Moreover, the Activity in the test on Rattus norvegicus [7] was found to be 43.8 KA/dl; with Rattus norvegicus [8], 158.5 mg/dL.
As for `COc1ccc([C@H]2CN(C)[C@@]3(C(=O)Nc4ccccc43)[C@@]23SC(=O)NC3=O)cc1OC`, the Activity was 133.5 mg/dL with Rattus norvegicus [1]; 115.8 mg/dL in the test on Rattus norvegicus [2]; 698 U/mg protein in the test with Rattus norvegicus [3]; 1.8 mg/dL with Rattus norvegicus [4]; 41.8 mg/dL with Rattus norvegicus [5]; 140.5 U/ml in the test with Rattus norvegicus [6]. Further, the results for the Activity in the test on Rattus norvegicus [7] and with Rattus norvegicus [8] were 48.5 KA/dl and 123.8 mg/dL, respectively.
